Key:
[1] = tested on: alkaloid bitterness in cocoa; test: Tasting panel, sample vs control: reduction of alkaloid bitterness in cocoa; assay type: in vivo, human; conditions: 10% unsweetened cocoa powder in water; for bitterness of sample compared to control: room temperature
Experimental: (§1) All concentrations in % are % (wt/wt), unless otherwise indicated. A tasting panel of 5 to 8 panelists was asked to compare the bitterness of two samples (sample with trilobatin and control without) of various caffeine-containing consumables.
(§2) Different concentrations/ranges were tested, with the ones indicated being the ones with a clear bitter masking effect. While higher concentrations reach a bitter masking effect, panelists found a negative impact on the overall flavor profile at higher concentrations.
A tasting panel of 5 to 8 panelists was asked to compare and record the sensory attribute differences between two samples (sample with trilobatin and control without).
The control and sample contained 10% unsweetened cocoa powder in water (Dutch processed dark cocoa powder, commercially available from Hersheys), the sample additionally contained 0.0005% trilobatin.
The samples were served at room temperature.
A tasting panel of 5 to 8 panelists was asked to compare and record the sensory attribute differences between two samples (sample with HDG and control without).
The control and sample contained 10% unsweetened cocoa powder in water (Dutch processed dark cocoa powder, commercially available from Hersheys), the sample additionally contained 0.0020% (w/w) HDG.

[2] = tested on: sweet sensitive panelists; test: Ranking with R-index analysis: isointensity of HDG to sucrose; assay type: in vivo, human
Experimental: (§3) All examples were performed with sweet sensitive panelists able to detect at least 0.5% of sucrose or less, unless stated otherwise. The concentration detectable by the average consumer will be higher. The results were obtained using 20 panelists in two replications.
The sucrose concentration that tastes isointense in sweetness to HDG was determined using samples of 15 ppm and 20 ppm, each of which was directly compared to a sucrose sample (sucrose solutions of 0.5%, 1%, 1.5% and 2% concentration). Fifteen milliliters of each blinded sample was presented, at room temperature, in random order to 20 sweet sensitive panelists. In two replications (over 1 session), panelists were asked to rank the solutions, from least sweet to most sweet. The data was subjected to an R-index analysis.

[3] = tested on: sweet sensitive panelists; test: Small panel ranking of HDG in water against sucrose solutions; assay type: in vivo, human
Experimental: as §3
Further three small panel testings were performed. HDG samples were prepared in concentrations of 5 ppm, 10 ppm, 15 ppm, and 20 ppm in water. All the samples were coded (presented blind) and given to the panel in random order. The panel was also presented with sucrose solutions for comparison The panel was asked to taste each sample and rank the samples from the least sweet to most sweet.

[4] = tested on: naringin and limonin bitterness; conditions: cited from earlier work
[5] = tested on: alkaloid bitterness in caffeine containing energy drinks; test: Tasting panel, sample vs control: reduction of alkaloid bitterness in an energy drink; assay type: in vivo, human; conditions: Redbull and Xenergy energy drinks, 0.0005% trilobatin
Experimental: as §1, §2
The control and sample were caffeine containing energy drinks, the sample additionally contained 0.0005% trilobatin.
The tested caffeine containing energy drinks were sucrose-sweetened glucoronlactone and taurin containing Redbull™ energy drink, and Xenergy™ (Zyions Inc., USA) which is sucralose/Acesulfame-K sweetened and contains vitamin B, calcium, taurine and glucoronlactone.

[6] = tested on: alkaloid caffeine bitterness in instant coffee; test: Tasting panel, sample vs control: reduction of alkaloid bitterness in coffee; assay type: in vivo, human; conditions: instant coffee in water
Experimental: as §1, §2
The sample and control were instant coffee (Nescafe, Taster's choice) in water, the sample additionally contained 0.001% (10 ppm) trilobatin. All samples/controls were presented warm to the panelists.

[7] = tested on: alkaloid bitterness in brewed black tea; test: Tasting panel, sample vs control: reduction of alkaloid bitterness in tea; assay type: in vivo, human; conditions: 0.001% trilobatin, warm, most panelists
Experimental: as §1, §2
Sample and control were brewed black tea (tea bags, Lipton), the sample additionally contained 0.001% trilobatin which was added to the brewed tea.
Samples and controls were served warm.

caffeine bitterness = test: Tasting panel, sample vs control: reduction of caffeine bitterness in water; assay type: in vivo, human; conditions: 200 ppm caffeine in water
Experimental: as §1, §2
The control and sample contained 0.02 or 200 ppm % caffeine in water, the sample additionally contained 0.000125 to 0.0020 trilobatin.

[8] = tested on: tannin-derived bitterness (tannic acid); test: Tasting panel, sample vs control: tannin bitterness in water; assay type: in vivo, human; conditions: 0.05%/500 ppm tannic acid in water; 0.000125 to 0.002% trilobatin
Description: as §1
The control and sample contained 0.05%/500 ppm tannic acid in water. The samples additionally contained 0.000125 to 0.002% trilobatin.

[9] = tested on: panelist trained for sweetness detection; test: Paired comparison of trilobatin in water versus sucrose solutions (sweetness); assay type: in vivo, human
Experimental: (§4) The sweetness detection threshold of trilobatin was determined as detailed below in 1a, 1b and 1c. All examples were performed with sweet sensitive panelists able to detect at least 0.5% of sucrose or less, unless stated otherwise. The concentration detectable by the average consumer will be higher.
Trilobatin (20 ppm, 60 ppm, 100 ppm) in water samples were evaluated for isointensity to sucrose solutions in a concentration of 0, 0.5 and 1% sucrose using a paired comparison method. Samples were paired and tasted left to right with rinsing (water) in between, by one panelist trained for sweetness detection.
The trilobatin samples were compared to either 0%, 0.5%, or 1% sucrose solutions.

[10] = tested on: sweet sensitive panelists; test: Ranking method with R-index: isointensity of trilobatin in water to sucrose; assay type: in vivo, human
Experimental: as §4
The sensory evaluation was conducted using a ranking method. Samples at ambient temperature were randomly presented in 15 ml blind aliquots (unidentifiable by panelists). Panels consisted of 15 sweet sensitive subjects and samples were presented in 2 replications over 1 session. After tasting each sample, the mouth was rinsed thoroughly with water at ambient temperature prior to tasting the next sample.
Panelists were presented with 0.5%, 1%, 1.5% and 2% sucrose solutions in water and a fifth sample of 100 ppm trilobatin in water. Subjects were asked to rank the samples from low to high with respect to perceived sweet taste. R-indices were calculated for 100 ppm trilobatin versus either 0.5%, 1%, 1.5% or 2% sucrose.
The sensory evaluation was conducted using the method described in example 1b. The panels consisted of 7 sweet sensitive panelists. Panelists were presented with 0.5%, 1%, and 1.5% sucrose solutions in water and a fourth sample of 200 ppm trilobatin in water. Panelists were asked to rank the samples from low to high with respect to perceived sweet taste.

COc1ccc(CCC(=O)c2c(O)cc(O[C@@H]3O[C@H](CO)[C@@H](O)[C@H](O)[C@H]3O)cc2O)cc1O [HDG, 1-[4-(beta-D-glucopyranosyloxy)-2,6-dihydroxyphenyl]-3-(3-hydroxy-4-methoxyphenyl)-1-propanone]
bitter aftertaste ([1]; 0.0020% (w/w) HDG): bitter aftertaste that remained
cocoa aroma ([1]; 0.0020% (w/w) HDG): keep their cocoa aroma
purine alkaloid bitterness (theobromine, caffeine) in the middle ([1]; 0.0020% (w/w) HDG): reduced
bitterness of sample compared to control ([1]; 0.0020% (w/w) HDG): less bitter
sample sweetness (HDG, 15 ppm) ([2]; vs 0.5% sucrose): sweeter
sample sweetness (HDG, 20 ppm) ([2]; vs 0.5% sucrose): Sweeter
sample sweetness (HDG, 15 ppm) ([2]; vs 1.0% sucrose): less sweet
sample sweetness (HDG, 20 ppm) ([2]; vs 1.0% sucrose): Isosweet
sample sweetness (HDG, 15 ppm) ([2]; vs 1.5% sucrose): less sweet
sample sweetness (HDG, 20 ppm) ([2]; vs 1.5% sucrose): Less sweet
sample sweetness (HDG, 15 ppm) ([2]; vs 2.0% sucrose): less sweet
sample sweetness (HDG, 20 ppm) ([2]; vs 2.0% sucrose): Less sweet
Rank and taste ([3]; 5 ppm HDG in water): 1 - not sweet
Isointensity to sucrose ([3]; 10 ppm HDG in water): 0.5 % sucrose
Rank and taste ([3]; 10 ppm HDG in water): 2 - very slightly sweet
Isointensity to sucrose ([3]; 15 ppm HDG in water): 0.75% sucrose
Rank and taste ([3]; 15 ppm HDG in water): 3 - slightly sweet
Rank and taste ([3]; 20 ppm HDG in water): 4 - sweet
sweetness threshold detected by sweet sensitive individuals ([3]; HDG in water): about 10 ppm
sweet taste detection threshold relative to that of trilobatin ([3]; in vivo): about 10 times less
suppression of naringin and limonin bitterness ([4]; concentrations at or below the sweet taste detection threshold of HDG): not
naringin and limonin bitterness ([4]; high suprathreshold concentration (ratio taste units sweetener to bitter compound at least 2:1)): suppress

O=C(CCc1ccc(O)cc1)c1c(O)cc(O[C@@H]2O[C@H](CO)[C@@H](O)[C@H](O)[C@H]2O)cc1O [trilobatin, 1-[4-(beta-D-glucopyranosyloxy)-2,6-dihydroxyphenyl]-3-(4-hydroxyphenyl)-1-propanone]
alkaloid bitterness in the middle and towards the end of the temporal bitterness profile ([1]; 0.0005% trilobatin): markedly reduced
bitter aftertaste ([1]; 0.0005% trilobatin): no bitter aftertaste
cocoa aroma ([1]; 0.0005% trilobatin): keep their cocoa aroma
bitterness of sample compared to control ([1]; 0.0005% trilobatin): less bitter
bitter aftertaste [5]: slight bitter aftertaste remains
bitterness in the middle of the temporal pattern [5]: very effectively blocked
bitterness of sample compared to control [5]: less bitter
concentration at which suppression of coffee flavor starts [6]: about 20 ppm
concentration at which the coffee flavor is significantly affected [6]: ≥ 50 ppm
alkaloid caffeine bitterness in the middle and towards the end of the temporal bitterness profile ([6]; 0.001% (10 ppm) trilobatin): markedly reduced
bitter aftertaste ([6]; 0.001% (10 ppm) trilobatin): no bitter aftertaste
bitterness of sample compared to control ([6]; 0.001% (10 ppm) trilobatin, warm): less bitter
bitterness of sample compared to control [7]: slightly less bitter
caffeine bitterness reduced compared to the control (caffeine bitterness; 0.000125% (1.25 ppm) trilobatin): not
caffeine bitterness compared to the control (caffeine bitterness; 0.0005% (5 ppm) up to 0.0020 (20 ppm) trilobatin): reduced
bitterness of samples and control [8]: similarly bitter
Taste of trilobatin samples compared to sucrose ([9]; 20 ppm trilobatin in water vs 0% sucrose): isosweet
Taste of trilobatin samples compared to sucrose ([9]; 20 ppm trilobatin in water vs 0.5% sucrose): notably less sweet
Taste of trilobatin samples compared to sucrose ([9]; 60 ppm trilobatin in water vs 0% sucrose): weakly sweeter
Taste of trilobatin samples compared to sucrose ([9]; 60 ppm trilobatin in water vs 0.5% sucrose): less sweet
Taste of trilobatin samples compared to sucrose ([9]; 100 ppm trilobatin in water vs 0% sucrose): sweeter
Taste of trilobatin samples compared to sucrose ([9]; 100 ppm trilobatin in water vs 0.5% sucrose): isosweet
Taste of trilobatin samples compared to sucrose ([9]; 100 ppm trilobatin in water vs 1% sucrose): less sweet
sample sweetness (trilobatin, 100 ppm) ([10]; vs 0.5% sucrose): Isosweet
sample sweetness (trilobatin, 100 ppm) ([10]; vs 1.0% sucrose): Less sweet
sample sweetness (trilobatin, 100 ppm) ([10]; vs 1.5% sucrose): Less sweet
sample sweetness (trilobatin, 100 ppm) ([10]; vs 2.0% sucrose): Less sweet
